“Also recorded” adds a separate entry of the source.
Tests used:
RXRα = target: T1, RXRα (Homo sapiens, UniProt P19793)
T1 sequence (P19793 1-462): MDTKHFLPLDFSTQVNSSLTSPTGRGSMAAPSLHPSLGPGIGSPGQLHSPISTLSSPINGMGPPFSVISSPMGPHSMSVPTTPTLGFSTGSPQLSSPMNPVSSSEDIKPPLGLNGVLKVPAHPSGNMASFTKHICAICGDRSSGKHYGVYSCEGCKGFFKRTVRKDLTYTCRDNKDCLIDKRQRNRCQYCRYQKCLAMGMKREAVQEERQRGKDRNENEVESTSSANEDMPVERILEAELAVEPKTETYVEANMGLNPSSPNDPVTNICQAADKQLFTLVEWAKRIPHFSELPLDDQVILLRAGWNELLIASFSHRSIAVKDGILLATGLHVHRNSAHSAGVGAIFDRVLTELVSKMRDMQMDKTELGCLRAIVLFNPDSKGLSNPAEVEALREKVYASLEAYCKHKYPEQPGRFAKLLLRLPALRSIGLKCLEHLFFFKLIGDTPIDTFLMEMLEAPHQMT
Protocol: (§1) To determine whether a RXR agonist can mediate its effects via RXRα receptor homodimers, RXRβ receptor homodimers, RXRγ receptor homodimers, or any combination thereof, or the corresponding RAR/RXR heterodimers, receptor-mediated transactivation assays were performed. For transactivation assays assessing RXR homodimer signaling, CV-1 cells were transfected with 1) an expression construct including a full length RXRα, RXRβ, or RXRγ; and 2) a rCRBPII/RXRE-tk-Luc reporter construct that included RXR homodimer-specific RXRE/DR1 responsive element linked to a luciferase gene. For transactivation assays assessing RAR/RXR heterodimer signaling, CV-1 cells were transfected with 1) an expression construct comprising a fusion protein including an estrogen receptor (ER) DNA binding domain linked to the ligand binding domain of RARα, RARβ, or RARγ and 2) a ERE-tk-Luc reporter construct that included an estrogen receptor responsive element linked to a luciferase gene. […] Data are mean values±SE from five independent experiments.

RXRγ = RXRγ (Homo sapiens, UniProt P48443)
Sequence of RXRγ (P48443 whole entry): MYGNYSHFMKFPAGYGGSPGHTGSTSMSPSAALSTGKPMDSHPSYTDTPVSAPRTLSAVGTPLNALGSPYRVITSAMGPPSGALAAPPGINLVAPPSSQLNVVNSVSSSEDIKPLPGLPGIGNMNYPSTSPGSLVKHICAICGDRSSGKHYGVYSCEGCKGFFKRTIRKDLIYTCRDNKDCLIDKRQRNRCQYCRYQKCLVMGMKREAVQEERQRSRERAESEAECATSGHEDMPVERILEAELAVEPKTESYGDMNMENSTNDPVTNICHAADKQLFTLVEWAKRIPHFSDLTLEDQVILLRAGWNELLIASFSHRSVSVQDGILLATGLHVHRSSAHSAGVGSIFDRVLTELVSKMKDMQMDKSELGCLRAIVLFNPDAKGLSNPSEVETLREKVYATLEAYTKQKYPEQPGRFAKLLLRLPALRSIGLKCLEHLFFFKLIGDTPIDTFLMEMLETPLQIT
Protocol: as §1

[1] = system: C57BL/6 (B6) mice with experimental autoimmune encephalomyelitis (EAE); assay: EAE in C57BL/6 (B6) mice, MOG peptide; format: in vivo, mouse; conditions: IRX4204 50 μg every other day from day 7 to day 20
Protocol: Mice were also given 200 ng of pertussis toxin in PBS administered by inter-peritoneal (i.p.) injection on the same day as MOG emulsion injection (day 0) and 2 days later (day 2). […] Mice were scored using the following scale: 0—Mice have no disease, 1—Mice have distal limp tail or rear leg weakness (paresis), 1.5—Mice have distal limp tail and rear leg weakness, 2—Mice have complete limp tail and rear leg weakness, 2.5—Mice have complete limp tail and weakness in both rear legs, 3—Mice have complete limp tail and paralysis in both rear legs, 3.5—Mice have complete limp tail, paralysis in both rear legs, and forelimb weakness. Mice receiving a score of 3.5 were immediately euthanized.

B6 mice with EAE = assay: EAE dose titration in B6 mice with spleen and CNS analysis; format: in vivo, mouse
Protocol: A dose titration experiment was also conducted in EAE mice. EAE was induced in 28 B6 mice with MOG/CFA and PT as above. Mice were scored on day 7 as indicated above and divided into groups by score so means are as equal as possible.
At the completion of the experiment, the vehicle control and 200 μg/day groups were euthanized and spleen and CNS samples obtained.

[2] = system: C57BL/6 (B6) mice with EAE; assay: CNS infiltrating cells in EAE B6 mice; format: in vivo, mouse; conditions: day 20 after immunization
Protocol: To determine whether a RXR agonist can reduce central nervous system (CNS) infiltrating cells, C57BL/6 (B6) mice were treated as described in Example 6. On day 20 after immunization, mice were sacrificed and perfused with phosphate buffered saline (PBS). Brain and spinal cord tissue was isolated, digested with DNase and LIBERASE DL® (Roche Diagnostics, Indianapolis, Ind.) for 30 minutes, and homogenized through 70 micron nylon mesh filters. Resulting cells were placed over a Percoll gradient to remove myelin. The remaining cells (microglia and CNS infiltrating cells) were counted, stained for molecules of interest, and run on a flow cytometer. Based on the frequencies obtained by FACS of these cell populations, total cell numbers of CNS infiltrating leukocytes expressing CD45, including CD4^+ T cells and CD11c^+ CD11b^+ myeloid dendritic cells (DC), were calculated.

SJL mice with EAE = assay: EAE in SJL mice, PLP peptide; format: in vivo, mouse
Protocol: To determine whether a RXR agonist can attenuate multiple sclerosis, SJL mice were immunized to induce EAE by s.c. injection at the base of their spine with 200 μL of adjuvant containing 200 μg proteolipid proteins (139-151) (PLP peptide; Peptides International, Louisville, Ky.) and 400 μg of non-viable M. tuberculosis H37 desiccate emulsified in a mixture of incomplete Freund's adjuvant and PBS. Mice were also given 150 ng of pertussis toxin in PBS i.p. on the same day as PLP emulsion injection and 2 days later. […] Mice were scored using the scale described in Example 3.

Nurr1/RXR heterodimer = target: T2, Nurr1/RXR heterodimer (Homo sapiens, UniProt P19793); assay: receptor transactivation assay Nurr1/RXR; format: cell-based; conditions: COS7 cells
T2 construct: full length Nurr-1 with or without full-length RXRα plasmid; expressed in transfected cells; host or cells: COS7
T2 sequence (P43354 whole entry partner, one chain of several): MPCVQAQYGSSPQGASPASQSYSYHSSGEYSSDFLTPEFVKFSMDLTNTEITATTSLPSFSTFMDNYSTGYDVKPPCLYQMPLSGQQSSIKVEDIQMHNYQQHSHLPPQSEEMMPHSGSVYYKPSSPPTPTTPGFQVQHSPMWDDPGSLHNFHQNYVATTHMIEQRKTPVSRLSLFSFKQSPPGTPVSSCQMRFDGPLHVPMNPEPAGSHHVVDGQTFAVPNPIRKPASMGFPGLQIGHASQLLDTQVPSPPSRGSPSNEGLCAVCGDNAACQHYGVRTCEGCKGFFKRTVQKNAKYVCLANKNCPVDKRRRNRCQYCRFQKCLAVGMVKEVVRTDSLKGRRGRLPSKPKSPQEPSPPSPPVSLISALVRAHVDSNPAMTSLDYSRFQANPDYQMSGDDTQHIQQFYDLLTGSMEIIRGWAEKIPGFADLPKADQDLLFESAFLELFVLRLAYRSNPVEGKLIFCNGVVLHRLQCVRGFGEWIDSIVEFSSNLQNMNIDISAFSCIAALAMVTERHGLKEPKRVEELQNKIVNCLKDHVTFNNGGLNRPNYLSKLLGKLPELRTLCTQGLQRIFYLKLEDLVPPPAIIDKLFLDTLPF
Description: For PPARγ: CV-1 cells were transfected with 3×(rAOX/DR1)-tk-Luc reporter gene and an expression vector for PPARγ. For FXR:CV-1 cells were transfected with 3×(IBABP/IRI)-tk-Luc reporter gene and vectors for FXR and RXRα. For LXR:CV-1 cells were transfected with 3×(PLTP/LXRE)-tk-Luc reporter gene with vectors for LXRα or LXRβ. For Nurr1: COS7 cells were transfected with 3×NBRE-tk-luc reporter gene and full length Nurr-1 with or without full-length RXRα plasmid. […] Luciferase data were normalized to co-transfected β-gal activity. Luciferase activity was expressed as percent of maximal activity obtained using specific agonists. Rosiglitazone (PPARγ), GW4064 (FXR), T0901317 (LXR).

[3] = system: oligodendrocyte precursor cells (OPCs); assay: oligodendrocyte precursor cell differentiation (PLP-EGFP); format: cell-based, mouse
Description: OPCs were generated from a neurosphere culture of E14.5 PLP-EGFP (on C57BL/6J background) mouse brains. […] The EGFP expressing cells were quantified with Cellomics Neuronal Profiling Algorithm.
The EGFP expressing cells in controls and all compounds were quantified with Cellomics Neuronal Profiling Algorithm.

[4] = system: one year old rats, caudal cerebellar peduncle lesions; assay: focal ethidium bromide induced rat model of demyelination; format: in vivo; conditions: IRX4204 10 mg/kg/day oral, thyroxine 20 ng/g s.c., 14 days
Protocol: The experiment uses rats of relatively advanced age (1 year) since such rats undergo remyelination in a less efficient manner, thereby providing data that are more relevant to the clinical treatment of human patients with multiple sclerosis or other demyelination disorders.
Focal demyelination is induced in one year old rats (approximately 300 g in weight) by injecting stereotactically 5 μl of ethidium bromide solution (0.01% vol/vol in saline) in a bilateral manner into the caudal cerebellar peduncles (CCP). […] The rats are killed on day 24 post-ethidium bromide treatment for analysis of remyelination by quantitative polymerase chain reaction (qPCR) and microscopy.

[5] = system: C57BL/6J mice with cuprizone+rapamycin demyelination; assay: 12-week cuprizone/rapamycin demyelination model, 6 weeks of treatment; format: in vivo, mouse; conditions: 6 weeks of treatment after 12 weeks CR
Description: All animals were sacrificed after 12 weeks of CR or after further 6 weeks of treatment to evaluate myelin in white matter (corpus callosum) and gray matter (hippocampus and cortex). In addition, the size of myelinated axons was quantified and the large myelinated axons were further assessed by 3D-electron microscopy (3D-EM). A total of 40 animals were included in the study, where all 40 animals received CR demyelination for 12 weeks. After demyelination, a subset (n=10) of animals are sacrificed to serve as controls to assess baseline demyelination. […] Floating brain sections are immunostained with myelin prolipid protein (PLP) to visualize and quantify myelin in gray matter, hippocampus (FIG. 16A) and cortex (FIG. 16B).

[6] = system: C57BL/6J mice with cuprizone+rapamycin demyelination; format: in vivo
[7] = system: early Parkinson's Disease subjects; assay: open-label clinical study in early Parkinson's Disease subjects; format: in vivo, human; conditions: for Change in TSH / Total Motor Change / Total UPDRS Change: 15 days
Protocol: An open-label, single site clinical study of early Parkinson's Disease subjects treated with IRX4204 was conducted to determine whether the preclinical promise of IRX4204 as a disease modifying agent for PD will translate to the clinical setting upon treatment of early PD patients with IRX4204 as determined by Unified Parkinson's Disease Rating Scale (UPDRS) measurements and safety assessments. The changes in UPDRS scores were correlated with circulating thyroxine levels.
Five subjects were recruited for each of the three dose levels. All fifteen subjects completed 15 days of dosing.
All subjects ([…]) completed 15 days of dosing and returned to the clinic at the end of 2 weeks (day 15-17) for UPDRS score determination and safety assessments including determination of plasma thyroxine (T4) levels. Percent changes in Total Motor scores, Total UPDRS scores and plasma T4 values were determined according to the following: […]

[8] = system: rat 6-OHDA induced Parkinson Disease (PD) model; assay: rat 6-OHDA induced Parkinson Disease model, paw placement (cylinder test); format: in vivo; conditions: day 24; IRX4204 10 mg/kg PO, T3 1.5 μg/kg and T4 9 μg/kg SC
Protocol: The paw placement (cylinder test) was used for assessment of the damage. This test assessed a rat's independent forelimb use to support the body against the walls of a cylindrical enclosure. The test took advantage of the animals' innate drive to explore a novel environment by standing on the hind limbs and leaning towards the enclosing walls.
To perform this test, rats were placed individually in a glass cylinder (21 cm diameter, 34 cm height) and wall exploration was recorded for 3 minutes. No habituation to the cylinder prior to recording was allowed.
The statistical analysis was performed as ratio between the intact and impaired legs (R/L ratio). The ratio was expressed as the values of intact right+both forelimbs divided by the values of impaired left +both forelimbs. A lower value of the ratio means greater healing of the 6-OHDA induced brain damage.
Once a week during three weeks (study days 10, 17 and 24), the animals were re-tested for their performance in the paw placement test.

[9] = system: mouse oligodendrocyte progenitor cells (OPCs); assay: mouse OPC differentiation with IRX4204 and T3; format: cell-based; conditions: 5-day treatment; IRX4204 10, 1, 0.1 nM
Protocol: OPCs were derived from plp-EGFP expressing mice.
Therapeutic agents were tested in 96-well plates (6 wells per concentration). […] All media contained 0.1% DMSO. At the end of the 5-day treatment, cells were imaged on Cellomics in two channels and algorithms were used to count nuclei and EGFP+oligodendrocytes.

[10] = 200 μg/day, restimulation with PMA/Ionomycin
[11] = 50 μg i.p. every other day from day 7, n=6

CC(/C=C/[C@@H]1C[C@]1(C)c1ccc2c(c1)C(C)(C)CCC2(C)C)=C\C(=O)O [IRX4204, 3,7-dimethyl-6(S),7(S)-methano,7-[1,1,4,4-tetramethyl-1,2,3,4-tetrahydronaphth-7-yl]2(E),4(E) heptadienoic acid]
Efficacy (% of 1 μM IRX4204) RXRα (RXRα; CV-1 cells): 100 % of 1 μM IRX4204
more potent in activating RXR receptors rather than RAR receptors (RXRα; RXR versus RAR receptors): > 1,000 fold
Efficacy (% of 1 μM IRX4204) RXRγ (RXRγ): 100 % of 1 μM IRX4204
symptoms of EAE (scores of disease severity over time) [1]: significantly reduces the symptoms of EAE
disease overall (EAE score) (B6 mice with EAE; 50 μg, 100 μg or 200 μg every day from day 8): significantly less disease overall
CCR6 expression on CD4 T cells, spleen (B6 mice with EAE; 200 μg/day): lowered
CD4+ CD25hi cells (number), spleen (B6 mice with EAE; 200 μg/day): reduced
co-expression of IFNg and IL-17A by CD4 T cells in CNS (B6 mice with EAE; 200 μg/day): not significantly different between groups
frequency of CD4+ CD25hi cells, spleen (B6 mice with EAE; 200 μg/day): not altered
total number of effector and memory CD4 T cells (CD44), spleen (B6 mice with EAE; 200 μg/day): decreased
total number of infiltrating CD4 T cells in the CNS (B6 mice with EAE; 200 μg/day): reduced
total number of recently activated CD4 T cells (CD69 and CD44), spleen (B6 mice with EAE; 200 μg/day): decreased
IFNγ, CNS infiltrating lymphocytes (B6 mice with EAE; [10]): significantly reduced
TNF, CNS infiltrating lymphocytes (B6 mice with EAE; [10]): significantly reduced
infiltration of CD4+ cells in to the CNS [2]: significant reduction
infiltration of CD11c+ CD11b+ cells (myeloid DC) in to the CNS [2]: significant reduction
Mean Maximum Score (SJL mice with EAE; 50 μg i.p. every other day from day 7): 1.5 ± 1.4
Death from Disease (SJL mice with EAE; [11]): 0/6
Disease Incidence (SJL mice with EAE; [11]): 4/6
symptoms of EAE (scores of disease severity) (SJL mice with EAE; 50 μg i.p. every other day, to day 14): significantly reduces the symptoms of EAE
activation of Nurr1/RXR permissive heterodimer (Nurr1/RXR heterodimer): selectively activates
OPC differentiation into oligodendrocytes (EGFP positive cells compared to DMSO) ([3]; all concentrations except the lowest (1^−6 μM)): significant increase; also recorded: dose dependent increase
total cell number and pyknotic cells ([3]; compared to controls): did not show any differences
Mbp expression (real-time qPCR of lesion samples) [4]: increase
Nkx2.2+ oligodendrocyte precursor cells (OPCs) in lesions [4]: increased
Pdgfra expression (real-time qPCR of lesion samples) [4]: increase
density of CC1+ differentiated oligodendrocytes in lesions [4]: increased
density of Olig2+ oligodendrocyte lineage cells in lesions [4]: increased
remyelinated axons (ultrastructural analyses of CCP lesions) [4]: more remyelinated axons than vehicle treatment
size of myelinated axons in the corpus callosum [5]: significantly increases; also recorded: shift in distribution to larger axon diameter
terminal body weights ([6]; ANOVA, IRX4204 or vehicle groups): no significant difference
number of SMI32 positive axonal ovoids in corpus callosum ([6]; IRX4204 10 mg/kg PO, T4 20 ng/g SQ, daily 6 weeks, versus Vehicle, 10 mg/kg): trend towards decreased number of axonal ovoids but was not statistically different from the Vehicle; also recorded: trend towards decrease in axonal ovoids, but it was statistically not different from vehicle
microglial/macrophage activation (Iba1 staining) in corpus callosum ([6]; daily 6 weeks, versus vehicle): no difference
decrease in T4 levels compared to vehicle control animals ([6]; terminal blood draw): ~50%
Change in TSH ([7]; 5 mg/day): −28.9%
Total Motor Change ([7]; 5 mg/day): −31.4%
Total UPDRS Change ([7]; 5 mg/day): −18.7%
Change in TSH ([7]; 10 mg/day): −36.6%
Total UPDRS Change ([7]; 10 mg/day): −13.6%
reduction in Total UPDRS scores ([7]; 20 mg/day): 6.6%
reduction of plasma T4 ([7]; 20 mg/day): 98.8%
Change in TSH ([7]; 20 mg/day): −98.8%
Total Motor Change ([7]; 20 mg/day): −14.5%
mean body weight [8]: 157.17±2.93%
oligodendrocyte production (EGFP+ oligodendrocytes) [9]: clear dose-responses

N[C@@H](Cc1cc(I)c(Oc2ccc(O)c(I)c2)c(I)c1)C(=O)O [T3, triiodothyronine, reference compound]
oligodendrocyte production (EGFP+ oligodendrocytes) [9]: clear dose-responses

— patent publication US10702489B2, “Treatment of nervous system disorders using combinations of RXR agonists and thyroid hormones” (IO Therapeutics, Inc., priority 2015, dated 2020)
